“Also recorded” adds a separate entry of the source.
What was measured:
[1] = Metabolic stability in human liver microsomes; format: in vitro ADME; settings: 37°C
Protocol: (§1) The test tube containing the drug concentration was incubated in a constant temperature water bath at 37°C. Each sample was obtained at 0, 0.5, 1.0, 1.5, 2.0, and 3.0 h, and the drug concentration was measured.
The metabolic stability of glytrexate was determined by incubation with human liver microsomes at 37°C. The reaction in the incubation system containing 10 μl of glytrexate (1 mg/ml), 50 μl of liver microsomes (1 mg/ml), and 10 μl of PBS (pH 7.4) was initiated by the addition of 30 μl of NADPH after 5 min of preincubation. The total incubation volume was 100 μl. The reaction was terminated at predefined time points (0, 0.5, 1, 1.5, 2, and 3 h). The incubations were conducted in triplicate.
Fifty microliters of the above solution was accurately drawn at different incubation time points, and 155 μl of ice-cold methanol (1% formic acid) and 5 μl of IS solution were added. The mixture was vortexed for 60 s and centrifuged at 14,000 rpm for 10 min. […] An appropriate amount of the supernatant was placed into the sample vial, and analyzed. […]
(§2) All samples were analyzed using the established LC‒MS/MS method, and MultiQuant 3.0 software was used for data processing. The glytrexate concentration at each time point was calculated, the remaining percentage was calculated, and the concentration change trend was analyzed.

[2] = Storage stability of glytrexate in rat plasma (short-term, autosampler, freeze-thaw, long-term); format: in vitro ADME
Protocol: For short-term and long-term stability, plasma samples (LQC and HQC) were kept at room temperature for 8 h and at −20°C for 14 consecutive days, respectively. To evaluate the freeze-thaw stability, plasma samples (n = 6) were investigated through three cycles from −20°C to 25°C, and the stability of the postpreparative samples after 8 h was evaluated in autosampler vials at 4°C. The results were evaluated by calculating the peak area ratio (glytrexate/IS) of the stability samples. If glytrexate is stable in rat plasma, the accuracy (RE) should be within ±15% and the precision (RSD) < 15%.

[3] = Stability on incubation in artificial gastrointestinal fluids at 37°C; format: in vitro ADME; settings: up to 3 h, 100 μg/ml
Protocol: Blank artificial gastric fluid: hydrochloric acid (2.75 mol/L, 16.4 ml) was diluted with 800 ml of water, adjusted to the pH 1.3 with 0.1 mol/L hydrochloric acid solution, diluted with water and diluted to 1000 ml.
Artificial gastric fluid: hydrochloric acid (2.75 mol/L, 16.4 ml) was diluted with 800 ml of water, and then 10 g of pepsin was added and shaken well until dissolved. The pH was adjusted to 1.3 with 0.1 mol/L hydrochloric acid solution, and then the artificial gastric fluid solution was diluted with water to 1000 ml.
Blank artificial intestinal fluid: potassium dihydrogen phosphate (6.8 g) was diluted with 500 ml of water, and shaken until dissolved. The pH was adjusted to 6.8 with 0.1 mol/L sodium hydroxide solution, and the solution was diluted with water to 1000 ml. […]
The test tube containing the drug concentration was incubated in a constant temperature water bath at 37°C. Each sample was obtained at 0, 0.5, 1.0, 1.5, 2.0, and 3.0 h, and the drug concentration was measured. […]
Fifty microliters of the above solution was accurately drawn at different incubation time points, and 155 μl of ice-cold methanol (1% formic acid) and 5 μl of IS solution were added. […] An appropriate amount of the supernatant was placed into the sample vial, and analyzed. […]
All samples were analyzed using the established LC‒MS/MS method, and MultiQuant 3.0 software was used for data processing. […]

[4] = Plasma protein binding rate by ultrafiltration, human plasma; format: in vitro ADME
Protocol: The glytrexate stock solution was diluted with 20% methanol (1% formic acid) to three mass concentrations of 50, 100, and 200 μg/ml for use. One hundred microliters of glytrexate solution of the corresponding concentration (3 duplicates each in parallel) was added to 900 μl of rat/human plasma, vortexed and mixed well to prepare plasma samples with plasma concentrations of 5, 10, and 20 μg/ml.
The plasma sample was placed in a constant temperature water bath at 37°C for a certain period to obtain an incubation solution. After the incubation solution was removed, it was placed on ice to maintain a low temperature, transferred to a filtrate tube (500 μl), and placed in a low-temperature refrigerated centrifuge at 4°C and 14,000 rpm for 20 min to obtain filtrate.
The test tube containing the drug concentration was incubated in a constant temperature water bath at 37°C. Each sample was obtained at 10 min, 30 min, 60 min, 120 min, 240 min, and 360 min and the drug concentration before and after ultrafiltration was determined. The plasma protein binding rate (%) = [(Cincubation solution-CUltrafiltrate)/Cincubation solution]×100%. GraphPad Prism 8 software was used to perform a one-way analysis of variance on the plasma protein binding rate of glytrexate between different mass concentrations in the same species.

[5] = Stability on incubation in human plasma at 37°C; format: in vitro ADME; settings: up to 3 h, 1 μg/ml
Protocol: as §1
Fifty microliters of the above solution was accurately drawn at different incubation time points, and 155 μl of ice-cold methanol (1% formic acid) and 5 μl of IS solution were added. The mixture was vortexed for 60 s and centrifuged at 14,000 rpm for 10 min. Then, 165 μl of supernatant was transferred to a new tube and evaporated to dryness under a gentle stream of nitrogen at room temperature. The residue was dissolved in 50 μl 20% methanol (1% formic acid), vortexed for 60 s and centrifuged at 14,000 rpm for 10 min. An appropriate amount of the supernatant was placed into the sample vial, and analyzed. Each experiment was repeated 3 times.
The plasma sample concentration was 1 μg/ml, and the concentration of the other samples was 100 μg/ml.
as §2

KB tumor cells = system: KB tumor cells; parameters: method as in Xing et al., 2017; settings: ref Xing et al., 2017, read-out: IC50, inhibitory action on KB tumor cells; cited from earlier work
[6] = 4°C for 8 h in rat plasma, spiked 5 ng/ml
[7] = 4°C for 8 h in rat plasma, spiked 1600 ng/ml
[8] = room temperature for 8 h in rat plasma, spiked 5 ng/ml
[9] = room temperature for 8 h in rat plasma, spiked 1600 ng/ml
[10] = three freeze‒thaw cycles in rat plasma, spiked 5 ng/ml
[11] = three freeze‒thaw cycles in rat plasma, spiked 1600 ng/ml
[12] = −20°C for 14 days in rat plasma, spiked 5 ng/ml
[13] = −20°C for 14 days in rat plasma, spiked 1600 ng/ml

metabolic stability in human liver microsomes (in words) ([1]; up to 3 h): good microsomal stability
half-life at 0.1 mg/ml ([1]; human, liver microsomes, pH 7.4, NADPH, regression of ln remaining vs incubation time, read-out: half-life (t1/2) in human liver microsomes): 1.83 h
% Deviation after storage [2, 6]: −11.50%
Mean measured concentration after storage [2, 6]: 4.43 ± 0.21 ng/mL
% Deviation after storage [2, 7]: −2.11%
Mean measured concentration after storage [2, 7]: 1566.21 ± 100.13 ng/mL
% Deviation after storage [2, 8]: −10.23%
Mean measured concentration after storage [2, 8]: 4.49 ± 0.40 ng/mL
% Deviation after storage [2, 9]: −0.82%
Mean measured concentration after storage [2, 9]: 1586.82 ± 103.89 ng/mL
% Deviation after storage [2, 10]: −2.27%
Mean measured concentration after storage [2, 10]: 4.89 ± 0.68 ng/mL
% Deviation after storage [2, 11]: −1.81%
Mean measured concentration after storage [2, 11]: 1571.07 ± 105.54 ng/mL
% Deviation after storage [2, 12]: −6.40%
Mean measured concentration after storage [2, 12]: 4.68 ± 0.40 ng/mL
% Deviation after storage [2, 13]: −2.01%
Mean measured concentration after storage [2, 13]: 1567.82 ± 112.14 ng/mL
stability in artificial gastrointestinal fluid (in words) [3]: did not remain stable
fraction unbound at 30 min, 5 μg/ml ([4]; 5 μg/ml, 37°C, 30 min incubation, ultrafiltration): 0.758
fraction unbound at 30 min, 10 μg/ml ([4]; 10 μg/ml, 37°C, 30 min incubation, ultrafiltration): 0.754
fraction unbound at 30 min, 20 μg/ml ([4]; 20 μg/ml, 37°C, 30 min incubation, ultrafiltration): 0.807
fraction unbound ([4]; over 5, 10 and 20 μg/ml): ~0.75
Compound: Nc1nc2[nH]c(CC(=O)NCC(=O)N[C@@H](CCC(=O)O)C(=O)O)cc2c(=O)[nH]1 [glytrexate, (S)-2-{2-[2-(2-amino-4-oxo-4,7-dihydro-3H-pyrrolo [2,3-d]pyrimidin-6-yl)-acetylamino]-acetylamino}-pentanedioic acid]
stability in human plasma compared with other matrices (in words) [5]: more stable in human plasma than in human liver microsomes and artificial gastrointestinal fluid; also recorded: more stable in human plasma than in rat plasma and in human liver microsomes; also recorded: greatest amount of remaining glytrexate was found in human plasma
IC50 (KB tumor cells): 78 pM

Reference: PMC9577195, “Pharmacokinetics, bioavailability, and plasma protein binding study of glytrexate, a novel multitarget antifolate” (Frontiers in Pharmacology, 2022)
